Laboratory results published in patent publication US20250170155A1, “NUCLEOSIDE DERIVATIVES AND PRODRUGS THEREOF HAVING VIRAL GROWTH INHIBITORY ACTION” (Shionogi & Co., Ltd., priority 2021, published 2025).

Tests used:
Format in all cases: cell-based
[1] = system: influenza virus (A/WSN/33 (H1N1) strain); test: CPE suppression effect confirmation test (influenza virus, RPMI 2650 cells), antiviral activity; details: for EC50: read-out: Influenza EC50 (50% CPE inhibitory concentration), A/WSN/33 (H1N1), 3 to 6 days
[2] = Cytotoxic activity evaluation, RPMI 2650 cells; details: human, no virus, 3 to 6 days
Protocol: <Operation Procedure (Cytotoxic Activity Evaluation)>
On the day before the compound treatment, cells prepared to an appropriate number were seeded in a 96 well plate at 100 μL/well. Thereafter, the cells were cultured in a CO2 incubator at 37° C. • Preparation of 2 μg/mL trypsin/0.5% BSA/MEM
Same as those described in the section for evaluation of antiviral activity • Dilution and dispensing of test substance
A 3- to 5-fold serial dilution series of test substances was prepared in DMSO in advance, and diluted with 2 μg/mL trypsin/0.5% BSA/MEM so that the final concentration of DMSO was 0.5% (100 to 200 μL/well). The cells were washed with MEM, and then cultured in a test substance-added medium for 3 to 6 days. Double measurement was performed for each drug. • Dispensing of resazurin solution
Same as those described in the section for evaluation of antiviral activity • Measurement of fluorescence intensity
Same as those described in the section for evaluation of antiviral activity
[formula] [formula] • Calculation of Selectivity Index (SI)

[3] = system: SARS-CoV-2 (hCoV-19/Japan/TY/WK 521/2020 strain); test: microbe, parasite or virus in culture; details: HEK293T/ACE2-TMPRSS2 cells; for EC50: Severe acute respiratory syndrome coronavirus 2, HEK-293T, 72 h, read-out: SARS-CoV-2 EC50 (50% CPE inhibitory concentration), 293T-AT, 3 days culture
[4] = system: SARS-CoV-2 (hCoV-19/Japan/TY/WK-521/2020 strain); test: CPE suppression effect confirmation test (SARS-CoV-2, Vero E6/TMPRSS2 cells), antiviral activity; details: for EC50: Severe acute respiratory syndrome coronavirus 2, VeroE6/TMPRSS2, 72 h, read-out: SARS-CoV-2 EC50 (50% CPE inhibitory concentration), 3 days culture

For `Nc1ncnn2c([C@@H]3N[C@H](CO)[C@@H](O)[C@H]3F)ccc12` [Compound I-013], the “Influenza SI (Selectivity Index)” value [1] was over 1.99, the EC50 [1] was 251 µM and the CC50 [2] was over 500 µM.
With `Nc1ncnc2c([C@@H]3N[C@H](CO)[C@@H](O)[C@H]3O)c[nH]c12` [Galidesivir, reference compound] the “SARS-CoV-2 SI (Selectivity Index), 293T-AT” value [3] was under 5.3, the EC50 [3] was over 20 µM and the EC50 [4] was over 100 µM.
For `O=c1[nH]cnn2c([C@@H]3N[C@H](CO)[C@@H](O)[C@H]3O)ccc12` [Compound I-019], the “Influenza SI (Selectivity Index)” value [1] was over 7.62, the EC50 [1] was 65.6 µM and the CC50 [2] was over 500 µM.
With `Cc1cnc(-c2cc([C@@H]3N[C@H](CO)[C@@H](O)[C@H]3O)n3ncnc(N)c23)s1` [Compound I-043] the “Influenza SI (Selectivity Index)” value [1] was over 2.46, the EC50 [1] was 203 µM and the CC50 [2] was over 500 µM.
With `Cl.Nc1ncnn2c([C@@H]3N[C@H](CO)[C@@H](O)[C@H]3O)cc(B(O)O)c12` [Compound I-011] the “Influenza SI (Selectivity Index)” value [1] was 11.2, the EC50 [1] was 6.7 µM and the CC50 [2] was 75.1 µM.
For `Cl.Nc1ncnn2c([C@@H]3N[C@H](CO)[C@@H](O)[C@H]3O)cc(-c3nccs3)c12` [Compound I-021], the “Influenza SI (Selectivity Index)” value [1] was over 20.9, the EC50 [1] was 23.9 µM and the CC50 [2] was over 500 µM.
In the case of `Nc1ncnn2c([C@@H]3N[C@H](CO)[C@@H](O)[C@H]3O)cc(/C=N\O)c12` [Compound I-026], the “Influenza SI (Selectivity Index)” value [1] is reported as over 518, the EC50 [1] is reported as 0.965 µM and the CC50 [2] is reported as over 500 µM.
For `N#C[C@@]1(c2ccc3c(N)ncnn23)O[C@H](CO)[C@@H](O)[C@H]1O` [GS-441524, reference compound], the EC50 [1] was over 500 µM.
In the case of `N#CCc1cc([C@@H]2N[C@H](CO)[C@@H](O)[C@H]2O)n2ncnc(N)c12` [Compound I-028], the “Influenza SI (Selectivity Index)” value [1] is reported as 20.6, the EC50 [1] is reported as 4.95 µM and the CC50 [2] is reported as 102 µM.
For `Cc1nc(N)c2ccc([C@@H]3N[C@H](CO)[C@@H](O)[C@H]3O)n2n1.Cl.Cl` [Compound I-005], the “Influenza SI (Selectivity Index)” value [1] was over 2.13, the EC50 [1] was 235 µM and the CC50 [2] was over 500 µM.
For `Nc1ncnc2c([C@@H]3N[C@H](CO)[C@@H](O)[C@H]3O)ccn12` [Compound I-012], the “Influenza SI (Selectivity Index)” value [1] was over 281, the EC50 [1] was 1.78 µM and the CC50 [2] was over 500 µM.
In the case of `Nc1ncnc2c([C@@H]3O[C@H](CO)[C@@H](O)[C@H]3O)ccn12` [Compound I-014], the “Influenza SI (Selectivity Index)” value [1] is reported as 69.7, the EC50 [1] is reported as 0.188 µM and the CC50 [2] is reported as 13.1 µM.
With `Nc1ncnn2c([C@@H]3N[C@H](CO)[C@@H](O)[C@H]3O)ccc12` [WO2014078778 Example5_30 g, reference compound] the “SARS-CoV-2 SI (Selectivity Index), 293T-AT” value [3] was under 1.34, the EC50 [3] was over 4 µM and the “Influenza SI (Selectivity Index)” value [1] was 73.7. The EC50 [1] was 0.471 µM, the “SARS-CoV-2 SI (Selectivity Index)” value [4] was under 0.41 and the EC50 [4] was over 4 µM.
For `Nc1ncnn2c([C@@H]3N[C@H](CO)[C@@H](O)[C@H]3O)cc(-c3cncs3)c12` [Compound I-027], the “Influenza SI (Selectivity Index)” value [1] was over 48.5, the EC50 [1] was 10.3 µM and the CC50 [2] was over 500 µM.
With `Nc1ncnc2c([C@@H]3N[C@H](CO)[C@@H](O)[C@H]3O)cnn12` [WO2006002231 Example 13_9-4, reference compound] the “Influenza SI (Selectivity Index)” value [1] was 4.69 and the EC50 [1] was 87.8 µM.
In the case of `Nc1ncnn2c([C@@H]3N[C@H](CO)[C@@H](O)C3(F)F)ccc12` [Compound I-003], the “Influenza SI (Selectivity Index)” value [1] is reported as over 22.1, the EC50 [1] is reported as 22.6 µM and the CC50 [2] is reported as over 500 µM.
In the case of `Nc1nc(F)nn2c([C@@H]3N[C@H](CO)[C@@H](O)[C@H]3O)ccc12` [Compound I-004], the “Influenza SI (Selectivity Index)” value [1] is reported as over 2.06, the EC50 [1] is reported as 243 µM and the CC50 [2] is reported as over 500 µM.
With `Cl.Nc1ncnn2c([C@H]3N[C@@H](CO)[C@H](O)[C@@H]3O)cc(B(O)O)c12` [Compound I-032] the “Influenza SI (Selectivity Index)” value [1] was over 1.38, the EC50 [1] was 361 µM and the CC50 [2] was over 500 µM.
In the case of `Nc1ncnc2c([C@@H]3O[C@H](CO)[C@@H](O)[C@H]3F)c[nH]c12` [Compound I-002], the “Influenza SI (Selectivity Index)” value [1] is reported as over 105, the EC50 [1] is reported as 4.77 µM and the CC50 [2] is reported as over 500 µM.
For `OC[C@H]1N[C@@H](c2ccn3c(NO)ncnc23)[C@H](O)[C@@H]1O` [Compound I-035], the “Influenza SI (Selectivity Index)” value [1] was over 1.33, the EC50 [1] was 375 µM and the CC50 [2] was over 500 µM.
